# Measurements reported in patent US8372430B2, “Compositions, methods, and kits useful for the alleviation of gastrointestinal effects” (priority 2002, dated 2013).
# Legend:
# overweight human subject [1] = experiment: Example 5: XENICAL regimen changed to XENICAL plus behenic acid capsules in an overweight human subject; format: in vivo; conditions: behenic acid 1.2 g capsule with XENICAL (120 mg orlistat) at each meal
# Experimental: An overweight human subject is given a therapeutic dose of XENICAL@ (360 mg orlistat per day/three doses of 120 mg orlistat with each meal) to assist in the reduction of body weight.
# When these symptoms are first observed, the regimen is modified to a combination of XENICAL® and behenic acid. At each meal, the subject consumes two capsules. The first capsule is XENICAL® (120 mg orlistat) while the second capsule contains the behenic acid (1.2 g). These capsules are co-packaged in a kit for the convenience of the subject.
# [2] = system: male, Sprague-Dawley rats; experiment: Fur appearance score: separation of excreted dietary oil from fecal matter in rats fed food compositions; format: in vivo, rat; conditions: food with 0.04% orlistat, no calcium stearate, ad libitum 11 days, assessed days 7 and 11; scale 1 (no oil visible on fur) to 5 (>90% of fur oiled)
# Source text: Groups of male, Sprague-Dawley rats (commercially available from Harlan Labs, Indianapolis, Ind.), were presented with a composition, which was a food composition, containing either 0.04% orlistat, by weight of the composition, or the combination of 0.04% orlistat and 1%, 0.5%, or 0.25% calcium stearate, all by weight of the composition. The fat content of each composition provided 30% of the consumed energy of the rat. Another group of rats (also male, Sprague Dawley, commercially available from Harlan Labs, Indianapolis, Ind.) were presented with the same food compositions, except devoid of orlistat and calcium stearate (“control compositions”). All rats consumed their respective compositions ad libitum for 11 days.
# On the seventh and eleventh days of these dietary regimens, the appearance of each rat was viewed by assessors not aware of the identity of composition consumed by the rats. Separation of oil from the other fecal matter of each rat was determined by the use of a scale that quantified the fraction of the rat's fur that was coated with excreted dietary oil. […] Intermediate scores of “2,” “3,” and “4” indicated partial covering of the rat's fur, with “2” corresponding to approximately 10% coverage or less, “3” corresponding to approximately greater than 10% to approximately 50% coverage, and “4” corresponding to approximately greater than 50% to approximately 90% coverage.
# overweight human subject [3] = experiment: Example 4: XENICAL regimen with separate magnesium stearate wafer in an overweight human subject; format: in vivo
# Experimental: XENICAL® is prescribed to an overweight human subject at a therapeutic dose of 120 mg orlistat taken with each of three daily meals. This dose causes a reduction in the absorption of dietary fat such that total caloric intake by the subject is reduced by approximately 10%, relative to the subjects normal dietary energy intake. […] In particular, magnesium stearate is provided at an amount of 1 gram incorporated into a wafer that is consumed with each meal, resulting in a total consumption of 3 grams per day of magnesium stearate. […] The efficacy of the XENICAL® is unaffected by the addition of magnesium stearate to the diet.
molecule,measurement,setting,value
CCCCCCCCCCCCCCCCCCCCCC(=O)O [behenic acid],state of the excreted fat,overweight human subject [1],stiffened
"CCCCCCCCCCCC(CC1OC(=O)C1CCCCCC)OC(=O)C(CC(C)C)NC=O (stereo not shown) [orlistat, tetrahydrolipstatin]",mean fur appearance score,[2],2.4
magnesium stearate,effect on gastrointestinal discomfort and anal leakage of unabsorbed oil,"overweight human subject [3]; 1 gram magnesium stearate in a wafer with each meal (3 grams per day), together with XENICAL",prevents the gastrointestinal discomfort and anal leakage of unabsorbed oil
same,efficacy of XENICAL on addition of magnesium stearate to the diet,overweight human subject [3]; 3 grams per day magnesium stearate with XENICAL 120 mg orlistat per meal,unaffected
